Laboratory results taken from patent US20260125397A1, “MK2 DEGRADERS AND USES THEREOF” (Kymera Therapeutics, Inc., priority 2023, published 2026).

What was measured:
[1] = biological target: T1, MK2 (Homo sapiens, UniProt P49137); test: MK2 degradation in human THP-1 monocytic cells (MSD, 24 h); type: cell-based; set-up: endogenous in cells; settings: THP-1 cells; for DC50: read-out: MK2 MSD THP-1 degradation 24 h GMean External Abs DC50
Description: The human monocytic cancer cell line THP-1 (ATCC (TIB-202)) was cultured in 96 well plates (Coming 3894) at a density of 200,000 cells per well in 100 microlitres in complete growth medium of RPMI 1640 (Gibco) pus 10% fetal Bovine Serum (Coming) and Penicillin/Streptomycin (SolarBio) at 37 degrees Celsius and 5% CO2. A serial dilution of each compound (usually 3 to 5 fold serial dilutions up to 10 separate concentration points) was added to individual wells from a 10 millimolar stock solution, at a background concentration of 0.1% DMSO and the cells were shaken at 600 rpm for 5 minutes and then were cultured for 24 hours at 37 degrees Celsius and 5% carbon dioxide. Separately, a custom MSD (MesoScaleDiscovery, L15XA-3) plate for detection of human MK2 was prepared by coating the plate with the commercial AbCarn ab247272 reagent in 1× Phosphate Buffered Saline at 40 microlitres per well and incubated at 4 degrees Celsius overnight. The next day, the MSD plate was washed with 150 microlitres of Tween buffered saline, blocked with MSD blocking buffer (3% BlockerA from MSD), and washed again.
(§1) The cell plate was centrifuged at 3,200 g for 5 minutes and the supernatant was discarded and 100 microlitres of RIPA lysis buffer (containing proteinase inhibitors, Boston BioProducts BP-115D) was added and the plate was sealed and shaken on ice for 20 minutes. The plate was centrifuged as before and 70 microlitres of sample lysate was added to the MSD plates and they were shaken at room temperature for I hour at 600 rpm. The MSD plate was washed 3 times as before and then the primary MK2 detection antibody (Santa Cruz sc-100393) was added at a final concentration of 1 microgram per ml at 25 microlitres per well and shaken at room temperature for 1 hour at 600 rpm.
(§2) After 3 more washes, the secondary detection antibody (SULFO-Tag anti rabbit antibody R32AB-5) was added at a final concentration of 1 microgram per ml at 25 microlitres per well and shaken at room temperature for 1 hour at 600 rpm. After 3 more washes, the 1X MSD (diluted from 5X concentrate with water) reading buffer was added at 150 microlitres per well and read on the MSD instrument Meso Sector S 600.
(§3) The inhibition/degradation curves and DC50 values were plotted and calculated using XL Fit (version v5.3.1.3) using equation 201 and a 4 parameter logistic model whereby fit=(A+((B−A)/(1+((x/C)D))) where A is the Bottom and B is the Top and C is the IC50and D is the slope and high C is the signal for the DMSO treated cells and Low C is the signal is the signal for the lysis buffer.

[2] = biological target: T1, MK2; test: MK2 degradation in human SW1353 cells (MSD, 24 h); type: cell-based; set-up: endogenous in cells; host or cells: SW-1353 (ATCC HTB-94); settings: for Dmax: read-out: MK2 MSD SW 1353 24 h Dmax %; for DC50: read-out: MK2 MSD SW1353 degradation 24 h GMean External Abs DC50
Description: The human chondrocyte cancer cell line SW-1353 (ATCC(HTB-94)) was cultured in 96 well plates (Coming 3894) at a density of 200,000 cells per well in 100 microlitres in complete growth medium of Leibovitz's L-15 Medium (Gibco) pus 10% fetal Bovine Serum (Coming) and Penicillin/Streptomycin (SolarBio) at 37 degrees Celsius. A serial dilution of each compound (usually 3 to 5 fold serial dilutions up to 10 separate concentration points) was added to individual wells from a 10 millimolar stock solution, at a background concentration of 0.10% DMSO and the cells were shaken at 600 rpm for 5 minutes and then were cultured for 24 hours at 37 degrees Celsius. Separately, a custom MSD (MesoScaleDiscovery, L15XA-3) plate for detection of human MK2 was prepared by coating the plate with the commercial AbCam ab247272 reagent in 1× Phosphate Buffered Saline at 40 microlitres per well and incubated at 4 degrees Celsius overnight. The next day, the MSD plate was washed with 150 microlitres of Tween buffered saline, blocked with MSD blocking buffer (3% Blocker A from MSD), and washed again.
as §1, with “for 1” for “for I”
as §2
as §3, with “IC50 and” for “IC50and”

T1 sequence (P49137 whole entry): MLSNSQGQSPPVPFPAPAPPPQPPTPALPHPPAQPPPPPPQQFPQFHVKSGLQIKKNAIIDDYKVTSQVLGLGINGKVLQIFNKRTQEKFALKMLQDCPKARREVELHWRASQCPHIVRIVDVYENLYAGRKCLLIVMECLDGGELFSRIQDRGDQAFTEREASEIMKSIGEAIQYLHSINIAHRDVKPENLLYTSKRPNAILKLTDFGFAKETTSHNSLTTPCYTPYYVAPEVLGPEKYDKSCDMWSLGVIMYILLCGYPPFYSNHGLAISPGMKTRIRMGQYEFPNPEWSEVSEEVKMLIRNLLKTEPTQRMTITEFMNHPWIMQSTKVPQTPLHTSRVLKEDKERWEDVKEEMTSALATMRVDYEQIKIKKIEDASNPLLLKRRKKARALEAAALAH

Dmax [1] [%] | DC50 [1] [nM] | Dmax [2] [%] | DC50 [2] [nM] | Compound
> 75 | < 1 | > 75 | < 1 | C[C@@H]1CNc2c(sc3ccc4nc(N5CCN(CCC6CC7(CCN(C(=O)c8ccc(Cl)c(N9CCC(=O)NC9=O)c8)CC7)C6)CC5)ccc4c23)C(=O)N1 [I-35]
> 75 | < 1 | > 75 | < 1 | C[C@@H]1CNc2c(sc3ccc4nc(N5CCC(OC6CCC7(CC6)CN(c6ccc8c(c6)n(C)c(=O)n8C6CCC(=O)NC6=O)C7)CC5)ccc4c23)C(=O)N1 (stereo partly shown) [I-36]
50 to 75 | < 1 | 50 to 75 | < 1 | C[C@@H]1CNc2c(sc3ccc4nc(N5CCC(COC6CCN(c7ccc8c(c7)n(C)c(=O)n8C7CCC(=O)NC7=O)CC6)CC5)ccc4c23)C(=O)N1 (stereo partly shown) [I-38]
> 50 | < 1 | > 50 | < 1 | C[C@@H]1CNc2c(sc3ccc4nc(N5CCN(C[C@H]6C[C@]7(CCN(c8ccc9c(c8)n(C)c(=O)n9C8CCC(=O)NC8=O)C7)C6)CC5)ccc4c23)C(=O)N1 (stereo partly shown) [I-39]
> 75 | < 1 | > 75 | < 1 | C[C@@H]1CNc2c(sc3ccc4nc(N5CCN(C[C@H]6C[C@@]7(CCN(c8ccc9c(c8)n(C)c(=O)n9C8CCC(=O)NC8=O)C7)C6)CC5)ccc4c23)C(=O)N1 (stereo partly shown) [I-40]
> 75 | < 1 | > 75 | < 1 | C[C@@H]1CNc2c(sc3ccc4nc(N5CCC(CN6CCC(N7CC(c8ccc9c(c8)n(C)c(=O)n9C8CCC(=O)NC8=O)C7)CC6)CC5)ccc4c23)C(=O)N1 (stereo partly shown) [I-43]
> 75 | < 1 | > 75 | < 1 | C[C@@H]1CNc2c(sc3ccc4nc(N5CCC(N(CC(F)F)C6CC7(CCN(c8ccc9c(c8)n(C)c(=O)n9C8CCC(=O)NC8=O)CC7)C6)CC5)ccc4c23)C(=O)N1 (stereo partly shown) [I-46]
50 to 75 | < 1 | > 50 | 10 to 100 | Cn1c(=O)n(C2CCC(=O)NC2=O)c2ccc(N3CC(CN4CCN(c5ccc(-c6nccc(-c7cc8c([nH]7)C7(CC7)CNC8=O)n6)cc5C5CC5)CC4)C3)cc21 (stereo not shown) [I-49]
> 75 | < 1 | > 75 | < 1 | C[C@@H]1CNc2c(sc3ccc4nc(N5CCN(CC6CC7(CCN(c8ccc9c(N%10CCC(=O)NC%10=O)cncc9c8)CC7)C6)CC5)ccc4c23)C(=O)N1 [I-50]
> 75 | > 100 | > 75 | 1 to 10 | C[C@@H]1CNc2c(sc3ccc4nc(N5CCC(CN6CCC7(CC6)CN(c6ccc8c(c6)n(C)c(=O)n8C6CCC(=O)N(C)C6=O)C7)CC5)ccc4c23)C(=O)N1 (stereo partly shown) [I-52]
50 to 75 | < 1 | > 50 | < 1 | COc1cc(-c2nccc(-c3cc4c([nH]3)C3(CC3)CNC4=O)n2)ccc1N1CCN(CC2CN(c3ccc4c(c3)n(C)c(=O)n4C3CCC(=O)NC3=O)C2)CC1 (stereo not shown) [I-54]

The next lines start with the molecule.

Compound | Dmax [1] [%] | DC50 [1] [nM] | Dmax [2] [%] | DC50 [2] [nM]
Cn1c(=O)n(C2CCC(=O)NC2=O)c2ccc(N3CC(CN4CCN(c5ccc(-c6nccc(-c7cc8c([nH]7)C7(CC7)CNC8=O)n6)cc5C#N)CC4)C3)cc21 (stereo not shown) [I-37] | > 75 | < 1 | > 75 | < 1
Cn1c(=O)n(C2CCC(=O)NC2=O)c2ccc(C#CCN3CCN(c4ccc(-c5nccc(-c6cc7c([nH]6)C6(CC6)CNC7=O)n5)cc4)CC3)cc21 (stereo not shown) [I-41] | > 75 | < 1 | 50 to 75 | < 1
COc1ccc2c(c1CCN1CCN(c3ccc(-c4nccc(-c5cc6c([nH]5)C5(CC5)CNC6=O)n4)cc3)CC1)n(C)c(=O)n2C1CCC(=O)NC1=O (stereo not shown) [I-42] | > 75 | < 1 | > 75 | < 1
Cn1c(=O)n(C2CCC(=O)NC2=O)c2ccc(N3CC(CN4CCC(n5cc(-c6nccc(-c7cc8c([nH]7)C7(CC7)CNC8=O)n6)cn5)CC4)C3)cc21 (stereo not shown) [I-44] | > 50 | > 100 | > 50 | > 100
Cn1c(=O)n(C2CCC(=O)NC2=O)c2ccc(N3CC(CN4CCN(c5ccc(-c6nccc(-c7cc8c([nH]7)C7(CC7)CNC8=O)n6)cc5)CC4)C3)cc21 (stereo not shown) [I-45] | > 50 | > 100 | > 50 | > 100
Cn1c(=O)n(C2CCC(=O)NC2=O)c2ccc(N3CC(CN4CCN(c5ccc(-c6nccc(-c7cc8c([nH]7)C7(CC7)CNC8=O)n6)cc5OC5CC5)CC4)C3)cc21 (stereo not shown) [I-47] | > 50 | < 1 | > 50 | > 100
Cn1c(=O)n(C2CCC(=O)NC2=O)c2ccc(N3CC(CN4CCN(c5ccc(-c6nccc(-c7cc8c([nH]7)C7(CC7)CNC8=O)n6)cc5C(F)(F)F)CC4)C3)cc21 (stereo not shown) [I-48] | > 75 | < 1 | 50 to 75 | < 1
Cn1c(=O)n(C2CCC(=O)NC2=O)c2ccc(N3CCN(CC#Cc4ccc(-c5nccc(-c6cc7c([nH]6)C6(CC6)CNC7=O)n5)cc4)CC3)cc21 (stereo not shown) [I-51] | > 75 | < 1 | > 50 | 1 to 10
